Assay [1] relates to pqsA-lacZ reporter. As to the kind of experiment: pqsA-lacZ reporter induction in pqsA mutant cultures. Type of assay: cell-based, Pseudomonas aeruginosa pqsA mutant. To be noted: pqsA mutant background, compounds added at onset of culture at 10 mg/L. From the text:
Activity is reported as Miller units (MU), corrected for the OD of the cultures at 600 nm.
(§1) P. aeruginosa strains include: wild type PA14 (Rahme et al., Science 268, 1899-1902, 1995); an mvfR mutant (Cao et al., Proc. Natl. Acad. Sci. USA 98, 14613 -8, 2001); 8C12, a TnphoA-insertion mutant of pqsB (Mahajan-Miklos et al., Cell 96, 47-56, 1999); and a lasR::Gm mutant, which was generated by allelic exchange using pSB219.9A as described (Beatson et al., J Bacteriol 184, 3598-604, 2002). A pqsE deletion mutant was generated via pEX18Ap allelic replacement, using sucrose selection, resulting in a 570 bp non-polar deletion covering 65% of the sequence (Hoang et al., Gene 212, 77-86, 1998). The pqsA (U479) TnphoA mutant was obtained from the PA14 Transposon Insertion Mutant Database. For complementation analysis, mvfR was cloned into pDN18 (Nunn et al., J. Bacteriol. 172, 1990). The reporter fusions phzABC-lacZ and hcnA′-lacZ have been described (Whiteley et al., J. Bacteriol. 182, 4356-60, 2000; Pessi et al., J. Bacteriol. 182, 6940-9, 2000). Plasmids were transformed into PA14 by electroporation (Smith et al., Nuc. Acid. Res. 17, 10509, 1989). Specific β-galactosidase activity was determined as reported (Miller, Cold Spring Harbor Laboratory, Cold Spring Harbor, N.Y., pp. 352-355 1972).

Assay [2] has as its system phzABC-lacZ reporter. Briefly: phzABC-lacZ reporter activity after exogenous HHQ, wild-type PA14 cells. Type of assay: cell-based, Pseudomonas aeruginosa PA14. The conditions noted are these: wild-type PA14, 10 mg/L HHQ added to culture medium.
Description: To determine whether HHQ is itself involved in signal gene regulation, independently from PQS activity, or whether it functions solely as a PQS precursor, we asked whether exogenous HHQ can stimulate the activity of a phzABC-lacZ reporter carried by wild-type PA14 cells, and by lasR^− mutant cells.
as §1, with “The reporter fusions phzABC-lacZ and hcnA′-lacZ have been described (Whiteley et al., J. Bacteriol. 182, 4356-60, 2000; Pessi et al., J. Bacteriol. 182, 6940-9, 2000). Plasmids were transformed into PA14 by electroporation (Smith et al., Nuc. Acid. Res. 17, 10509, 1989).” left out, “1972). […]” for “1972).”

Assay [3] relates to pyocyanin production. As to the kind of experiment: Pyocyanin production in pqs or mvfR mutant cultures. Type of assay: cell-based, Pseudomonas aeruginosa pqs or mvfR mutants. To be noted: addition to cultures of any pqs or mvfR mutants. As for the experimental part:
Whereas pqsA or pqsB inactivation abolish HAQ production, a pqsE mutant produces essentially normal HAQ levels (FIG. 12), and HAQ-related antibiotic activity (FIG. 6). […] Supporting this notion, mvfR overexpression gave excessive pyocyanin accumulation (FIG. 12). […] Such compounds would not be detected by our assay, which was aimed at extracellular compounds. Loss of these compounds might underlie the reduced pathogenicity of a pqsE mutant.
Bacteria were grown in Luria-Bertani broth or on 1.5% Bacto-agar (Difco) LB plates. Freshly plated cells served as inoculum. For pyocyanin production, bacteria were grown in King's A broth (King et al., J. Lab. Clin. Med. 44, 301, 1954) and the pyocyanin quantified as OD520 after supernatant extraction (Essar et al., J. Bacteriol. 172, 884-900, 1990). Tetracycline (75 mg/L), carbenicillin (300 mg/L), kanamycin (200 mg/L), and gentamicin (100 mg/L) were included as required.

Assay [4] deals with Bacillus subtilis. As to the kind of experiment: Antimicrobial activity assay on well-plates (growth inhibition zones). It counts as cell-based. The conditions noted are these: well-plate, 60 μl of 25% methanol solution of test extract or pure HAQ, overnight 37° C.; FIG. 10. From the text: Bacillus subtilis growth on well plates was scored for inhibition by culture extracts of PA14 and the mvfR, pqsA, and pqsE mutant strains (left plate), and by purified PQS, HHQ and HQNO, versus PA14 extract (right plate).
Fluorescent pseudomonads, and perhaps just P. aeruginosa, are the only microorganisms identified to produce HAQs (Budzikiewicz, FEMS Microbiol. Rev. 104, 209-228, 1993; Lépine et al., Biochim. Biophys. Acta 1622, 36-40, 2003). Although their biological functions are unknown, many HAQs were initially isolated as antibiotics (Hays et al., J. Biol. Chem. 159, 725-750, 1945; Wells, J. Biol. Chem. 196, 331-340, 1952). We assayed the antimicrobial activity of total organic extracts from PA14 and mvfR, pqsA, and pqsE mutant strains, and purified PQS, HHQ and HQNO, against the Gram-positive species Staphylococcus aureus and Bacillus subtilis. […] Thus, MvfR regulates the production of antibiotics that can function in niche competition against other bacteria. Because the pqsE mutant and PA14 produce roughly the same levels of antimicrobial activity, these antibiotic compounds are probably HAQs, instead of other non-polar compounds whose synthesis is under PQS control.
HAQ antimicrobial activity was evaluated on well-plates. […] Plates were incubated overnight at 37° C. and scored for growth inhibition zones around the test wells.

In assay [5] the test system is cytochrome. The conditions noted are these: Lightbown et al. 1956; cited from earlier work.
Assay [6] has as its system Na^+-translocating NADH-quinone oxidoreductases. The conditions noted are these: Häse et al. 2001; cited from earlier work.
For assay [7] the following is noted: Pesci et al. 1999; cited from earlier work.

For the molecule `Nc1ccccc1C(=O)O` [AA, anthranilic acid], in assay [1], the “pqsA-lacZ induction (LacZ activity)” value is on record as “does not”.

Take `CCCCCCCc1cc(O)c2ccccc2n1` [HHQ, 4-hydroxy-2-heptylquinoline]: in assay [2], the “β-galactosidase activity of phzABC-lacZ reporter” value was “induces significant and consistent levels of β-galactosidase activity”. For the same molecule, the “induction of pyocyanin production” value in assay [3] is given as “failed to induce pyocyanin production”.

Consider `CCCCCCCc1cc(O)c2ccccc2[n+]1[O-]` [HQNO, 4-hydroxy-2-heptylquinoline N-oxide], for which the “antimicrobial activity (growth inhibition)” value in assay [4] is “specific antibacterial activity”. The cytochrome inhibition result in assay [5] is given as “widely used cytochrome inhibitor”. For the same molecule, in assay [6], the “inhibition of Na^+-translocating NADH-quinone oxidoreductases” value is “inhibits”.

Regarding `CCCCCCCc1nc2ccccc2c(O)c1O` [PQS, 3,4-dihydroxy-2-heptylquinoline], in assay [1], the “pqsA-lacZ induction (LacZ activity)” value is on record as “activates pqsA transcription”. Further, in assay [3], the “induction of pyocyanin production” value is on record as “failed to induce pyocyanin production”. Besides, the antibiotic activity result in assay [7] was “no antibiotic activity”.

Values taken from US8906602B2, “Methods for identifying candidate compounds for treating, reducing, or preventing pathogenic infections” (The General Hospital Corporation, priority 2004, dated 2014).
